From article PMC12163635, “Synthetic Retinoids for the Modulation of Genomic and Nongenomic Processes in Neurodegenerative Diseases” (ACS Omega, 2025)

What was measured:
Assay in all cases: Fluorescence competition binding assay (displacement of DC271)
RARα [1] = target: T1, RARα (Homo sapiens, UniProt P10276); conditions: for Kd / Binding KD (± SD) RARα: 100 nM RAR and DC271 on plate; for Kd: read-out: Binding KD (± SD) RARα; for ΔGEXP RARα: experimental binding free energy from K D, ΔGexp=−RT ln K, 298.1 K
T1 construct: His6-3C-NusA (cleaved yes); made in house; host or cells: E. coli BL21(DE3), pET50b vector
T1 sequence (P10276 183-417 limits assumed): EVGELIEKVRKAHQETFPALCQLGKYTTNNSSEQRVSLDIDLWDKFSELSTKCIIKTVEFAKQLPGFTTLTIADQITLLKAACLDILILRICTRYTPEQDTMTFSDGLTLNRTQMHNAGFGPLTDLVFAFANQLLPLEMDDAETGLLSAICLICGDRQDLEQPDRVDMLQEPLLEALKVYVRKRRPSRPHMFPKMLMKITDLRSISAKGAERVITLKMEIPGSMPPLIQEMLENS
Description: (§1) Fluorescence competition assays were employed to determine the relative binding affinities of each synthetic retinoid toward the LBD of the RARs. The assay is based on the potential for competitive displacement of the inherently fluorescent retinoid DC271 from the LBP by a test nonfluorescent synthetic retinoid. Changes in the fluorescence were measured following the addition of a serial dilution of the test compound and the results were plotted to generate a binding curve. […] Assays were performed for both RARα and RARγ. […] Nonlinear least-squares regression analyses were performed to calculate binding affinities and reported as binding K D, the equilibrium dissociation constant between the RAR isoform and the test synthetic retinoid.
(§2) RARα/γ proteins were expressed in BL21(DE3) cells (NEB) transformed into pET50b (Novagen) and pOPINS3C vectors, respectively, carrying the gene construct and containing a His6-3C-NusA tag or His6-3C-SUMO tag used for solubility. Transformations were carried out under standard conditions using Quick Transformation Protocol (New England Biolabs). Successful transformants were grown overnight in 2xYT media (Melford) and frozen for storage at −80 °C in 50% glycerol. Expression cultures were inoculated from glycerol stocks into 25 mL of 2xYT media (Melford) with 50 μg/mL kanamycin or 100 μg/mL ampicillin (Sigma-Aldrich) and grown overnight with shaking (37 °C, 150 rpm). The overnight cultures were transferred into 1 L expression flasks (2xYT/ampicillin 100 μg/mL or 2xYT/kanamycin 50 μg/mL) and grown with shaking at 37 °C, 150 rpm. Induction was carried out at an OD600 of 0.6–0.8, with 1 mL of 1 M IPTG (1 mM in culture), before shaking overnight (20 h) at 18 °C. The resulting cultures were spun down into pellets using an Avanti Hi-Speed centrifuge (JLA 8.1000, 4000 rpm, 30 min, 4 °C), before the supernatant was removed and the bacterial pellet were frozen at −80 °C.
(§3) RARα/γ (pET50b or pOPINS3C, BL21(DE3) (NEB)) were resuspended from pellet with 20 mL Wash Buffer (20 mM Tris-HCl, 300 mM NaCl and 20 mM imidazole, pH 8) and the resulting suspension was sonicated on ice (40% power, 2 min, repeated twice with 1 min rest in-between) before centrifuging (Avanti Hi-Speed JA25.50, 20,000 rpm, 1 h, 4 °C). Supernatants were clarified using 0.45 μm syringe filters (Thermo Fisher Scientific). Affinity chromatography and size-exclusion (SEC) chromatography were carried out on AKTA Pure25 (Cytiva). Supernatants were loaded onto the HisTrap HP column (5 mL, Cytiva) and washed using 25 mL of wash Buffer. The column was washed with Wash Buffer until UV trace returned to baseline, before RARα/γ was eluted using a gradient of Elution Buffer (20 mM Tris-HCl, 300 mM NaCl, 500 mM imidazole pH 8). The resulting protein-containing fractions were analyzed by SDS-PAGE (200 V, 30 min) using SurePAGE Bis-Tris 12% precast gels (Genscript). Protein concentrations were estimated using absorbance at 280 nm on a DS-11 spectrophotometer (Denovix) with calculated molecular weights and extinction coefficients (Expasy). RAR proteins were cleaved overnight from 3C-NusA tag or 3C-SUMO-His tag using 1 Unit/100 μg protein of HRV3C protease (Thermo Fisher Scientific) at 4 °C. Solution after digestion was loaded onto a HiLoad 16/600 Superdex 75 prep-grade column (Cytiva) and cleaved RARα/γ was separated from the tag based on molecular weight and eluted from the column using SEC Buffer (20 mM Tris-HCl, 300 mM NaCl and 0.5 mM TCEP, pH 8) into 2 mL fractions. The resulting protein fractions were analyzed by SDS PAGE (200 V, 30 min) using SurePAGE Bis-Tris 12% precast gels (Genscript), before being concentrated to 5 mg/mL using centrifugal concentrators (Sartorius) and frozen at −80 °C in small aliquots for use in binding assays.

RARα [2] = tested on: RARα; design: species or system human; conditions: log-log plot of K D for RARα and RARγ
Description: as §1, §2, §3

RARγ = target: T2, RARγ (Homo sapiens, UniProt P13631); conditions: for Kd / Binding KD (± SD) RARγ: 100 nM RAR and DC271 on plate; for Kd: read-out: Binding KD (± SD) RARγ; for ΔGEXP RARγ: experimental binding free energy from K D, ΔGexp=−RT ln K, 298.1 K
T2 construct: His6-3C-SUMO (cleaved yes); made in house; host or cells: E. coli BL21(DE3), pOPINS3C vector
T2 sequence (P13631 185-419 limits assumed): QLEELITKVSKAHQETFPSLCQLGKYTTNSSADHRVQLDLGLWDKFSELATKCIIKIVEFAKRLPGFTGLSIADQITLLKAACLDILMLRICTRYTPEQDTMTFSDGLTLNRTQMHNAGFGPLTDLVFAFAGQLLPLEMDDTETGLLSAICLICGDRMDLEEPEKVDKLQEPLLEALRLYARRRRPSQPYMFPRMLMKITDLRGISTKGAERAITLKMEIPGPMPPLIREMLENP
Description: as §1, §2, §3

RARα, sequence (P10276 182-417): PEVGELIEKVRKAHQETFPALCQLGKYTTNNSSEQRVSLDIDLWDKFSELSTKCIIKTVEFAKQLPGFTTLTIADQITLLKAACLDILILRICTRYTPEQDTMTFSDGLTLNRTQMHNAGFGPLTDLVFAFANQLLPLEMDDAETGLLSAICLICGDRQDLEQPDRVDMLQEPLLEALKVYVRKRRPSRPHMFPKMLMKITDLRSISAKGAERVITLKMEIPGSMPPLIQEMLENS

Row | Kd (RARα [1]) [µM] | ΔGEXP RARα (RARα [1]) | binding preference RARα versus RARγ (from K D) (RARα [2]) | Kd (RARγ) [µM] | ΔGEXP RARγ (RARγ) | Binding KD (± SD) RARγ (RARγ) | Binding KD (± SD) RARα (RARα [1]) | SMILES
1 | 0.0309 | -43.1 kJ/mol | bind RARγ stronger than RARα | 0.016 | -44.8 kJ/mol | – | – | CC1(C)CCC(C)(C)c2cc(C#Cc3ccc(C(=O)O)cc3F)ccc21 [Compound 14, 3-Fluoro-4-[2-(5,5,8,8-tetramethyl-5,6,7,8-tetrahydronaphthalen-2-yl)ethynyl]benzoic Acid]
2 | 0.00037 | -54.4 kJ/mol | strongly binds both RARα and RARγ | 0.0227 | -43.5 kJ/mol | – | – | CC1(C)CCC(C)(C)c2cc(C#Cc3cc(F)c(C(=O)O)c(F)c3)ccc21 [Compound 15, 2,6-Difluoro-4-[2-(5,5,8,8-tetramethyl-5,6,7,8-tetrahydronaphthalen-2-yl)ethynyl]benzoic Acid]
3 | 0.0737 | -41 kJ/mol | bind RARγ stronger than RARα | 0.0242 | -43.5 kJ/mol | – | – | CC1(C)CCC(C)(C)c2cc(C#Cc3ccc(C(=O)O)cc3Cl)ccc21 [Compound 16, 3-Chloro-4-[2-(5,5,8,8-tetramethyl-5,6,7,8-tetrahydronaphthalen-2-yl)ethynyl]benzoic Acid]
4 | 0.00572 | -47.3 kJ/mol | bind RARα preferentially over RARγ | 0.0337 | -42.7 kJ/mol | – | – | Cc1cc2c(cc1C#Cc1cc(F)c(C(=O)O)c(F)c1)C(C)(C)CCC2(C)C [Compound 19, 2,6-Difluoro-4-[2-(3,5,5,8,8-pentamethyl-5,6,7,8-tetrahydronaphthalen-2-yl)ethynyl]benzoic Acid]
5 | 0.0871 | -40.3 kJ/mol | bind RARα preferentially over RARγ | 0.254 | -37.7 kJ/mol | – | – | CC1(C)CCC(C)(C)c2cc(C#Cc3ccc(C(=O)O)nc3)ccc21 [Compound 24, 5-[2-(5,5,8,8-Tetramethyl-5,6,7,8-tetrahydronaphthalen-2-yl)ethynyl]pyridine-2-carboxylic Acid]
6 | 0.927 | -34.4 kJ/mol | – | – | Non-competitive Binding | noncompetitive binding | – | CC1(C)CCC(C)(C)c2cc(C#Cc3cnc(C(=O)O)cn3)ccc21 [Compound 25, 5-[2-(5,5,8,8-Tetramethyl-5,6,7,8-tetrahydronaphthalen-2-yl)ethynyl]pyrazine-2-carboxylic Acid]
7 | 0.0483 | -41.8 kJ/mol | bind RARα preferentially over RARγ | 0.0905 | -40.2 kJ/mol | – | – | Cc1cc2c(cc1C#Cc1ccc(C(=O)O)cn1)C(C)(C)CCC2(C)C [Compound 26, 6-[2-(3,5,5,8,8-Pentamethyl-5,6,7,8-tetrahydronaphthalen-2-yl)ethynyl]pyridine-3-carboxylic Acid]
8 | – | Non-competitive Binding | – | – | Non-competitive Binding | noncompetitive binding | noncompetitive binding | COc1cc2c(cc1C#Cc1ncc(C(=O)O)cn1)C(C)(C)CCC2(C)C [Compound 29, 2-[2-(3-Methoxy-5,5,8,8-tetramethyl-5,6,7,8-tetrahydronaphthalen-2-yl)ethynyl]pyrimidine-5-carboxylic Acid]
9 | – | Non-competitive Binding | – | – | Non-competitive Binding | noncompetitive binding | noncompetitive binding | Cc1sc(-c2ccc(C(=O)O)cn2)nc1-c1cnc2c(n1)C(C)(C)CCC2(C)C [Compound 41, 6-[5-Methyl-4-(5,5,8,8-tetramethyl-5,6,7,8-tetrahydroquinoxalin-2-yl)-1,3-thiazol-2-yl]pyridine-3-carboxylic Acid]

Row | SMILES | Kd (RARα [1]) [µM] | ΔGEXP RARα (RARα [1]) | binding preference RARα versus RARγ (from K D) (RARα [2]) | Kd (RARγ) [µM] | ΔGEXP RARγ (RARγ) | Binding KD (± SD) RARγ (RARγ) | Binding KD (± SD) RARα (RARα [1])
10 | CC1(C)CCC(C)(C)c2cc(C#Cc3ccc(C(=O)O)c(F)c3)ccc21 [Compound 13, 2-Fluoro-4-[2-(5,5,8,8-tetramethyl-5,6,7,8-tetrahydronaphthalen-2-yl)ethynyl]benzoic Acid] | 0.0136 | -45.2 kJ/mol | close to the plotted line representing equal binding affinity for RARα and RARγ | 0.0186 | -44.4 kJ/mol | – | –
11 | Cc1cc2c(cc1C#Cc1ccc(C(=O)O)c(F)c1)C(C)(C)CCC2(C)C [Compound 17, 2-Fluoro-4-[2-(3,5,5,8,8-pentamethyl-5,6,7,8-tetrahydronaphthalen-2-yl)ethynyl]benzoic Acid] | 0.0284 | -43.51 kJ/mol | close to the plotted line representing equal binding affinity for RARα and RARγ | 0.0206 | -43.9 kJ/mol | – | –
12 | Cc1cc2c(cc1C#Cc1ccc(C(=O)O)cc1F)C(C)(C)CCC2(C)C [Compound 18, 3-Fluoro-4-[2-(3,5,5,8,8-pentamethyl-5,6,7,8-tetrahydronaphthalen-2-yl)ethynyl]benzoic Acid] | 0.0181 | -44.4 kJ/mol | close to the plotted line representing equal binding affinity for RARα and RARγ | 0.0186 | -44.4 kJ/mol | – | –
13 | CC1(C)CCC(C)(C)c2cc(C#Cc3ccc(C(=O)O)cn3)ccc21 [Compound 23, 6-[2-(5,5,8,8-Tetramethyl-5,6,7,8-tetrahydronaphthalen-2-yl)ethynyl]pyridine-3-carboxylic Acid] | 0.0158 | -44.8 kJ/mol | close to the plotted line representing equal binding affinity for RARα and RARγ | 0.0243 | -43.5 kJ/mol | – | –
